Results as given in patent US20260042764A1, “COMPOSITIONS AND METHODS FOR INHIBITION OF KRAS” (TheRas, Inc., priority 2022, published 2026).

What was measured:
SW620 cells (KRAS G12V) = experiment: Cell-based pERK HTRF assay in SW620 cell (Biological Example 4); conditions: Homo sapiens, SW-620, SW620 (KRAS G12V) cells, pERK HTRF
In short: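 Read-out: HTRF pERK signal (excitation 320 nm, emission 615 nm) from lysates of SW620 cells after 4 h compound exposure. Dose range was 9 points, half-log steps from 1 μM, in 0.25% DMSO; antibody incubation ran 4–24 h at room temperature.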

[1] = target: T1, Avi-KRAS G12D (1-169) GppNHp/RAF1 RBD-3xFLAG (52-151) (Homo sapiens, UniProt P01116, G12D); experiment: Raf1-KRAS G12D-GppNHP disruption HTRF assay (Biological Example 1); assay type: binding
T1 construct: Avi-KRAS G12D (1-169)
T1 sequence (P01116 1-169 isoform P01116-2 G12D): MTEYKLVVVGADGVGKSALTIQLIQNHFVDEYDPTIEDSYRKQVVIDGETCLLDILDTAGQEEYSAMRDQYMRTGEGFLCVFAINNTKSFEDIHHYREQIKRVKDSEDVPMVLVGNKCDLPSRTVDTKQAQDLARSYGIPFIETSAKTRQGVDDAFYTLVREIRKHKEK
In short: (§1)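 HTRF PPI disruption; buffer 50 mM Tris pH 7.5, 100 mM NaCl, 5 mM MgCl2, 0.1% BSA, 0.01% Tween, 10% DMSO. Protein mix 1 h RT shaking, reagent mix 1 h RT shaking. Data as % activity vs DMSO (100%).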

[2] = target: T2, Avi-KRAS G12R (1-169) GppNHp/RAF1 RBD-3xFLAG (52-151) (Homo sapiens, UniProt P01116, G12R); experiment: Raf1-KRAS G12R-GppNHP disruption HTRF assay (Biological Example 1); assay type: binding
T2 construct: Avi-KRAS G12R (1-169)
T2 sequence (P01116 1-169 isoform P01116-2 G12R): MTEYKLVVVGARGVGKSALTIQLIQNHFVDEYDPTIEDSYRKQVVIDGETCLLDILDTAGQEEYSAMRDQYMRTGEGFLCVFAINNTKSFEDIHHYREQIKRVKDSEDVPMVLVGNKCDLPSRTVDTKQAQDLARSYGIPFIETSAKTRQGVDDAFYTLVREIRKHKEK
In short: as §1

[3] = target: T3, Avi-KRAS WT (1-169) GppNHp/RAF1 RBD-3xFLAG (52-151) (Homo sapiens, UniProt P01116); experiment: Raf1-KRAS WT-GppNHP disruption HTRF assay (Biological Example 1); assay type: binding
T3 construct: Avi-KRAS WT (1-169)
T3 sequence (P01116 1-169 isoform P01116-2): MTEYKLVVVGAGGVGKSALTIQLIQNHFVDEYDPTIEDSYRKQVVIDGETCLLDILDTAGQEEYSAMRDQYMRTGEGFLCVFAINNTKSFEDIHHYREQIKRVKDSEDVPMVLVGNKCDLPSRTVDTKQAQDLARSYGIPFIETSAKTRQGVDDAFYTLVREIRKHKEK
In short: as §1

[4] = target: T4, Avi-KRAS G12V (1-169) GppNHp/RAF1 RBD-3xFLAG (52-151) (Homo sapiens, UniProt P01116, G12V); experiment: Raf1-KRAS G12V-GppNHP disruption HTRF assay (Biological Example 1); assay type: binding
T4 construct: Avi-KRAS G12V (1-169)
T4 sequence (P01116 1-169 isoform P01116-2 G12V): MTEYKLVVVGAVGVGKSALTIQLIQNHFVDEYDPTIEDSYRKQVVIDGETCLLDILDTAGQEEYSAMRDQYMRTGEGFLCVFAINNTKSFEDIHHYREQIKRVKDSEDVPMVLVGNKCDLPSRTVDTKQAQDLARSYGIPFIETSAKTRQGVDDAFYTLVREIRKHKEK
In short: as §1

GP2d cells (KRAS G12D) = experiment: Cell-based pERK HTRF assay in GP2d cell (Biological Example 2); conditions: GP2d, GP2d (KRAS G12D) cells, pERK HTRF
In short: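 Phospho-ERK in lysed cells was detected by HTRF using Eu cryptate and d2 antibodies, read between 4 and 24 h at room temperature. Prior to lysis, KRAS G12D GP2d cells, seeded the day before in DMEM with 10% FBS, were exposed to compounds for 60 min. Compounds were tested as 9-point half-log curves from 1 μM or 100 nM top, with 0.25% DMSO.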

[5] = KRAS G12D, GppNHp-loaded, class symbols
[6] = KRAS G12R, GppNHp-loaded, class symbols
[7] = KRAS WT, GppNHp-loaded, class symbols
[8] = KRAS G12V, GppNHp-loaded, class symbols

| IC50 (SW620 cells (KRAS G12V)) | IC50 ([1]; KRAS G12D-GppNHp/RAF1 RBD HTRF) | IC50 ([2]; KRAS G12R-GppNHp/RAF1 RBD HTRF) | IC50 ([3]; KRAS WT-GppNHp/RAF1 RBD HTRF) | IC50 ([4]; KRAS G12V-GppNHp/RAF1 RBD HTRF) | IC50 (GP2d cells (KRAS G12D)) | IC50 ([1]; KRAS G12D, GppNHp-loaded, Table 11) | IC50 ([2]; KRAS G12R, GppNHp-loaded, Table 11) | IC50 ([3]; KRAS WT, GppNHp-loaded, Table 11) | IC50 ([4]; KRAS G12V, GppNHp-loaded, Table 11) | IC50 (SW620 cells (KRAS G12V); class symbols) | IC50 [1, 5] | IC50 [2, 6] | IC50 [3, 7] | IC50 [4, 8] | IC50 (GP2d cells (KRAS G12D); class symbols) | SMILES |
| --- | --- | --- | --- | --- | --- | --- | --- | --- | --- | --- | --- | --- | --- | --- | --- | --- |
| < 100 nM | < 100 nM | < 100 nM | < 100 nM | < 100 nM | < 100 nM |  |  |  |  |  |  |  |  |  |  | CCN(c1nc(OC[C@@]23CCCN2C[C@H](F)C3)nc2c(F)c(-c3ccc(F)c4sc(N)c(C#N)c34)c(C(F)(F)F)cc12)[C@H]1CCN(C(=O)CCC#N)C1 (atropisomer, axis not shown) [Compound 555] |
| 100 to 1000 nM | 1000 to 10000 nM | 1000 to 10000 nM | 1000 to 10000 nM | 1000 to 10000 nM | 100 to 1000 nM |  |  |  |  |  |  |  |  |  |  | CN(C)C(=O)c1cc2n(n1)CCN(c1nc(OC[C@@]34CCCN3C[C@H](F)C4)nc3c(F)c(-c4ccc(F)c5sc(N)c(C#N)c45)c(C(F)(F)F)cc13)CC2 [Compound 426] |
| < 100 nM |  |  |  |  | < 100 nM | 100 to 1000 nM | 100 to 1000 nM | 100 to 1000 nM | 100 to 1000 nM |  |  |  |  |  |  | C[C@]1(O)CCCN(c2nc(OC[C@@]34CCCN3C[C@H](F)C4)nc3c(F)c(-c4ccc(F)c5sc(N)c(C#N)c45)c(C(F)(F)F)cc23)C1 [Compound 241] |
|  |  |  |  |  |  |  |  |  |  | < 100 nM | < 100 nM | < 100 nM | < 100 nM | < 100 nM | < 100 nM | CCN(c1nc(OC[C@@]23CCCN2C[C@H](F)C3)nc2c(F)c(-c3ccc(F)c4sc(N)c(C#N)c34)c(C(F)(F)F)cc12)[C@H]1CCN(C(=O)OC2CC2)C1 (atropisomer, axis not shown) [Compound 599] |
|  |  |  |  |  |  |  |  |  |  | < 100 nM | 100 to 1000 nM | 100 to 1000 nM | 100 to 1000 nM | 100 to 1000 nM | < 100 nM | N#Cc1c(N)sc2c(F)ccc(-c3c(C(F)(F)F)cc4c(N5CCn6nc(C(=O)N7CCC7)cc6C5)nc(OCC56CCCN5CC(F)C6)nc4c3F)c12 (stereo not drawn) [Compound 626] |
|  |  |  |  |  |  |  |  |  |  | < 100 nM | 100 to 1000 nM | 100 to 1000 nM | 100 to 1000 nM | 100 to 1000 nM | < 100 nM | CC#CC(=O)N1CC[C@@H](N(C)c2nc(OC[C@@]34CCCN3C[C@H](F)C4)nc3c(F)c(-c4ccc(F)c5sc(N)c(C#N)c45)c(C(F)(F)F)cc23)[C@H]1C [Compound 668] |
|  |  |  |  |  |  |  |  |  |  | < 100 nM | < 100 nM | < 100 nM | < 100 nM | < 100 nM | < 100 nM | CCN(c1nc(OC[C@@]23CCCN2C[C@H](F)C3)nc2c(F)c(-c3ccc(F)c4sc(N)c(C#N)c34)c(C(F)(F)F)cc12)[C@H]1CCN(C(=O)[C@@H]2C[C@H]2F)C1 (atropisomer, axis not shown) [Compound 768] |
| < 100 nM | 100 to 1000 nM | 100 to 1000 nM | 100 to 1000 nM | 100 to 1000 nM | < 100 nM |  |  |  |  |  |  |  |  |  |  | CC(=O)N1C[C@@H](N(C)c2nc(OC[C@@]34CCCN3C[C@H](F)C4)nc3c(F)c(-c4ccc(F)c5sc(N)c(C#N)c45)c(C(F)(F)F)cc23)C[C@@H]1CF [Compound 454] |
| 100 to 1000 nM | 100 to 1000 nM | 100 to 1000 nM | 100 to 1000 nM | 1000 to 10000 nM | < 100 nM |  |  |  |  |  |  |  |  |  |  | N#Cc1c(N)sc2c(F)ccc(-c3c(C(F)(F)F)cc4c(N5C[C@H]6C[C@@H]5CS6(=O)=O)nc(OC[C@@]56CCCN5C[C@H](F)C6)nc4c3F)c12 [Compound 322] |
| < 100 nM | 100 to 1000 nM | 100 to 1000 nM | 100 to 1000 nM | 100 to 1000 nM | < 100 nM |  |  |  |  |  |  |  |  |  |  | CN(c1nc(OC[C@@]23CCCN2C[C@H](F)C3)nc2c(F)c(-c3ccc(F)c4sc(N)c(C#N)c34)c(C(F)(F)F)cc12)[C@@H]1C[C@H]2COC(=O)N2C1 [Compound 476] |
| < 100 nM | 100 to 1000 nM | 1000 to 10000 nM | 100 to 1000 nM | 1000 to 10000 nM | < 100 nM |  |  |  |  |  |  |  |  |  |  | CCC(=O)N1CC[C@@H](N(C)c2nc(OC[C@@]34CCCN3C[C@H](F)C4)nc3c(F)c(-c4ccc(F)c5sc(N)c(C#N)c45)c(C(F)(F)F)cc23)[C@@H]1C [Compound 299] |
